Source: patent US20160137639A1, “TRIAZOLE-ISOXAZOLE COMPOUND AND MEDICAL USE THEREOF” (JAPAN TOBACCO INC., priority 2012, published 2016)
Like-named read-outs stand apart in the source and are kept apart here.

Legend:
[1] = target: T1, mouse RORγ (Mus musculus, UniProt P51450); experiment: Luciferase reporter gene assay of inhibitory effect against RORγ transcriptional activity (GAL4-mRORγ plasmid in CHO cells); format: cell-based
T1 construct: mouse, NM_011281.2 and from Ile251 to Lys516; expressed in transfected cells; host or cells: CHO cells (transient co-transfection with pG5-Luc reporter)
T1 sequence (P51450 251-516): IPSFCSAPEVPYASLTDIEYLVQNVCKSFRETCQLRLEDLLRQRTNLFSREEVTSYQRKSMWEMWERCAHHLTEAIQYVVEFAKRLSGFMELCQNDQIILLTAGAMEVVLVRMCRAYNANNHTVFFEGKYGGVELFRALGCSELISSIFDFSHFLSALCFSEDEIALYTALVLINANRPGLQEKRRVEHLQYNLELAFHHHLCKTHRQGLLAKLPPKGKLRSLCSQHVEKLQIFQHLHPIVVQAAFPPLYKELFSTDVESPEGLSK
Procedure: (§1) In vitro assay of inhibitory effect against RORγ transcriptional activity
(§2) Inhibitory effect of test article on transcriptional activity of RORγ was measured by means of the following luciferase reporter gene assay.
(§3) A cDNA encoding human and mouse RORγ ligand binding domain (LBD) were obtained based on the reported sequences (Genebank accession number and sequence: human, NM_005060.3 and from Ser253 to Lys518; mouse, NM_011281.2 and from Ile251 to Lys516).
(§4) The cDNA of human RORγ or mouse RORγ was inserted into pFA-CMV vector (Strategene), which expresses GAL4-DNA binding domain fusion protein.
(§5) The resulting plasmids are hereinafter referred to as GAL4-hRORγ plasmid and GAL4-mRORγ plasmid, respectively.
(§6) Human or mouse GAL4-RORγ plasmid was transiently co-transfected into Chinese hamster ovary cells (CHO cells) with […] plasmid, a reporter plasmid expressing firefly luciferase depending on GAL4.
(§7) TransIT CHO transfection reagent (Mirus) was used to co-transfect human or mouse GAL4-RORγ plasmid into CHO cells with pG5-Luc plasmid.
(§8) One day before the assay, CHO cells were suspended in HAM F-12 Nutrient medium containing 10 v/v % fetal bovine serum and seeded at 6×10^6 cells per 175 cm^2 cell culture flask.
(§9) Fifty four micro litters of Transit-CHO reagent was added into a 15 ml tube containing 1.16 ml of HAM F-12 Nutrient medium without fetal bovine serum and incubated at room temperature for 10 min.
(§10) The mixture was incubated at room temperature for 10 min.
(§11) Nine micro litters of CHO Mojo Reagent was then added into each tube and mixed gently. The mixture was incubated at room temperature for 10 min.
(§12) The resultant transfection reagent was applied to the cell culture.
(§13) After incubation at 37° C., 5% CO2 for 4 hr, the transfected CHO cells were harvested by a trypsin treatment.
(§14) The collected cells were resuspended in HAM F-12 Nutrient medium supplemented with 10 v/v % fetal bovine serum and plated into a 384-well-white plate at 8,000 cells/50 uL/well.
(§15) The plate was incubated at room temperature for 1 hour and then further incubated at 37° C., 5% CO2 for 3 hours.
(§16) The test articles were dissolved in dimethylsulfoxide (DMSO) to obtain a concentration of 10 mmol/L. The resulting solution was diluted with the medium just before use and added to the cells in the plate to prepare 8 different concentrations of the test article.
(§17) The final concentration of DMSO was 0.1 v/v % After the addition of the test articles, the cells were incubated at 37° C., 5% CO2 for 2 days.
(§18) RORγ transcriptional activity was detected as the intracellular luciferase activity using SteadyLite HTS Reporter Gene Assay System (Perkin Elmer).
(§19) StedyLite Reagent was diluted five-fold into a solution containing 10 mM Tricine, 0.2% w/v BSA, 0.02% v/v Tween-20 to obtain the luciferase substrate solution.
(§20) After the measurement of the cell viability using Resazurin, the culture media in the 384 well-plate were removed. Then the Luc substrate solution was added into each well.
(§21) After the incubation at room temperature for 10 minutes, luminescence of each well was measured by a microplate reader.
(§22) The luciferase activity derived from the luminescence count in the vehicle-control well treated with 0.1% DMSO alone was defined as 100%, and the luciferase activity in the test article was calculated as a percentage (%-of-control) based on the value of the vehicle-control.
(§23) EC50 value of test article was calculated by curve fitting with GraphPad Prism.
(§24) The luminescence counts at the concentration of the test article where the cytotoxicity was observed were excluded from the data analysis.

[2] = target: T2, human RORγ (Homo sapiens, UniProt P51449); experiment: Luciferase reporter gene assay of inhibitory effect against RORγ transcriptional activity (GAL4-hRORγ plasmid in CHO cells); format: cell-based
T2 construct: human, NM_005060.3 and from Ser253 to Lys518; expressed in transfected cells; host or cells: CHO cells (transient co-transfection with pG5-Luc reporter)
T2 sequence (P51449 253-518): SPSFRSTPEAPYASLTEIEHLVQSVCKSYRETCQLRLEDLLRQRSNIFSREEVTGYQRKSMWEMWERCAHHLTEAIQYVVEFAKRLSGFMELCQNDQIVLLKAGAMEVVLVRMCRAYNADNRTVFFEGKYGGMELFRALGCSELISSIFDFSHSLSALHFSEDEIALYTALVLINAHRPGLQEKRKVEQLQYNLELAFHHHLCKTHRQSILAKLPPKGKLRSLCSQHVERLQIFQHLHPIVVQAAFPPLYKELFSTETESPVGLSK
Procedure: as §1, §2, §3, §4, §5, §6, §7, §8, §9
A total 36 uL plasmid solution containing the GAL4-hRORγ plasmid (400 ng), pG5-Luc plasmid (9000 ng) and pcDNA3 plasmid (8600 ng) were added into the tube and mixed gently.
as §10, §11, §12, §13, §14, §15, §16, §17, §18, §19, §20, §21, §22, §23, §24

SMILES | EC50 ([1]; read-out: LUC EC50 (μM) mRORg) [µM] | EC50 ([2]; read-out: LUC EC50 (μM) hRORg) [µM] | EC50 ([1]; read-out: LUC EC50 mRORg) [µM] | EC50 ([2]; read-out: LUC EC50 hRORg) [µM]
Cc1ccc(NC(=O)CCc2nnc([C@H]3C[C@@H](CCC(C)C)C3)n2C2CC2)c(C)c1 [Example F-444] | < 3 | < 3 | – | –
Cc1ccc(NC(=O)C[C@H](OCc2ccccc2)c2nnc([C@H]3C[C@@H](CC(C)C)C3)n2C2CC2)c(C)c1 [Example F-581] | – | – | < 3 | < 3
COc1cc(C(F)(F)F)ccc1CNC(=O)CCc1nnc(CCC(C)C)n1C1CC1 [Example F-263] | < 3 | < 3 | – | –
CC(C)CCc1nnc(CCC(=O)NC[C@H](O)c2ccccc2)n1C1CC1 [Example F-103] | > 3 | > 3 | – | –
Cc1ccc(NC(=O)CC(CO)c2nnc(CCCC(C)C)n2C2CC2)c(C)c1 (racemic) [Example F-271] | < 3 | < 3 | – | –
Cc1c(F)ccc(NC(=O)C[C@H](CCO)c2nnc(-c3cc(CC(C)C)on3)n2C2CC2)c1C [Example F-661] | – | – | < 3 | < 3
Cc1ccc(NC(=O)C[C@H](CCCO)c2nnn([C@H]3C[C@@H](CC(C)(C)C(C)C)C3)c2C(F)(F)F)c(F)c1 [Example F-710] | – | – | < 3 | < 3
CC(C)CCc1nnc(CCC(=O)NCc2cccc3cn[nH]c23)n1C1CC1 [Example F-150] | > 3 | > 3 | – | –
Cc1ccc(NC(=O)C[C@H](CCC(=O)O)c2noc(-c3cc(C(F)(F)CC(C)(C)C)on3)c2C2CC2)c(Cl)c1 [Example E-35] | < 3 | < 3 | – | –
Cc1ccc(NC(=O)CC(CCN(C)C)c2nnc(CCCC(C)C)n2C2CC2)c(C)c1 (racemic) [Example F-276] | > 3 | > 3 | – | –
Cc1ccc(NC(=O)C[C@H](CCC(=O)O)c2noc(-c3cc(CC(C)C)n(C)n3)c2C2CC2)c(Cl)c1 [Example E-26] | < 3 | < 3 | – | –
Cc1ccc(NC(=O)C[C@H](CCC(=O)O)c2noc(-c3cc(C(C)(C)C)on3)c2C2CC2)c(Cl)c1 [Example E-43] | < 3 | < 3 | – | –
Cc1ccc(NC(=O)[C@H]2CC(C)(O)C[C@@H]2c2nnc([C@H]3C[C@@H](CC(C)C)C3)n2C2CC2)c(C)c1 (single isomer, unassigned) [Example F-565] | – | – | < 3 | < 3
Cc1ccc(NC(=O)CCc2nnc(CCC3CCCCC3)n2C2CC2)c(C)c1 [Example F-95] | < 3 | < 3 | – | –
CC(C)(C)C(F)(F)c1cc(-c2onc([C@@H](CCC(=O)O)CC(=O)Nc3ccc(F)cc3Cl)c2C2CC2)no1 [Example E-48] | < 3 | < 3 | – | –
Cc1ccc(NC(=O)CCc2nnc(CCCC(C)(C)C)n2C2CC2)c(C)c1 [Example F-305] | < 3 | < 3 | – | –
CC(=O)N1C[C@H](C(=O)Nc2ccc(C)cc2C)[C@@H](c2nnc([C@H]3C[C@@H](OC(C)C)C3)n2C2CC2)C1 (racemic) [Example F-330] | > 3 | > 3 | – | –
Cc1ccc(NC(=O)CC(Cc2nc(=O)o[nH]2)c2nnc([C@H]3C[C@@H](CC(C)C)C3)n2C2CC2)c(C)c1 (mixture of isomers) [Example F-472] | < 3 | < 3 | – | –

SMILES | EC50 ([1]; read-out: LUC EC50 (μM) mRORg) [µM] | EC50 ([2]; read-out: LUC EC50 (μM) hRORg) [µM] | EC50 ([1]; read-out: LUC EC50 mRORg) [µM] | EC50 ([2]; read-out: LUC EC50 hRORg) [µM]
CC(C)(C)C(F)(F)c1cc(-c2onc([C@@H](CCC(=O)O)CC(=O)Nc3ccc(Cl)cc3F)c2C2CC2)no1 [Example E-49, Sodium (S)-5-(4-chloro-2-fluoro-phenylcarbamoyl)-4-[4′-cyclopropyl-5-(1,1-difluoro-2,2-dimethylpropyl)-[3,5′]biisoxazolyl-3′-yl]-pentanoate] | < 3 | < 3 | – | –
Cc1ccc(NC(=O)[C@@H]2CC(C)(O)C[C@H]2c2nnc([C@H]3C[C@@H](CC(C)C)C3)n2C2CC2)c(C)c1 (single isomer, unassigned) [Example F-563] | – | – | < 3 | < 3
Cc1c(Cl)cccc1NC(=O)CCc1nnc(C2CN(CC(C)C)C2)n1C1CC1 [Example F-260] | > 3 | > 3 | – | –
COCC(C)(C)C[C@H]1C[C@@H](c2onc([C@@H](CCC(=O)O)CC(=O)Nc3ccc(C)cc3Cl)c2C2CC2)C1 [Example F-725] | – | – | < 3 | < 3
Cc1ccc(NC(=O)CC(CC(=O)N2CCCC2)c2nnc([C@H]3C[C@@H](CC(C)C)C3)n2C2CC2)c(C)c1 (mixture of isomers) [Example F-501] | – | – | < 3 | < 3
CCn1c(CCC(=O)Nc2cccc(Cl)c2C)nnc1C1Cc2ccccc2C1 [Example F-3] | < 3 | > 3 | – | –
Cc1ccc(NC(=O)C[C@H](CCC(=O)O)c2noc([C@H]3C[C@@H](CC(C)(C)C)C3)c2C2CC2)nc1C [Example F-680] | – | – | < 3 | < 3
Cc1c(Cl)cccc1NC(=O)CC(CCCOCc1ccccc1)c1nnc(CCC(C)C)n1C1CC1 (racemic) [Example F-195] | < 3 | < 3 | – | –
CC(=O)N1C[C@H](C(=O)Nc2ccc(C)cc2C)[C@@H](c2nnc(C3CC4(CCCCC4)C3)n2C2CC2)C1 (racemic) [Example F-452] | < 3 | < 3 | – | –
CC(=O)N1C[C@H](C(=O)Nc2ccc(C)cc2C)[C@@H](c2nnc(CC3CC(C)(C)C3)n2C2CC2)C1 (racemic) [Example F-347] | < 3 | < 3 | – | –
Cc1c(Cl)cccc1NC(=O)CCc1nnc(CCCC(C)(C)C(=O)O)n1C1CC1 [Example F-232] | > 3 | > 3 | – | –
CC1(c2cc(-c3onc([C@@H](CCC(=O)O)CC(=O)Nc4ccc(F)cc4Cl)c3C3CC3)no2)CCCC1 [Example E-72] | < 3 | < 3 | – | –
Cc1ccc(NC(=O)C[C@H](CCC(=O)O)n2nnc([C@H]3C[C@@H](CC(C)(C)C)C3)c2C2CC2)c(F)c1 [Example F-703] | – | – | < 3 | < 3
Cc1cnccc1CNC(=O)CCc1nnc(CCC(C)C)n1C1CC1 [Example F-111] | > 3 | > 3 | – | –
Cc1ccc(NC(=O)CCc2noc([C@H]3C[C@@H](CC(C)C)C3)c2C2CC2)c(C)c1 [Example F-665] | – | – | < 3 | < 3
Cc1ccc(NC(=O)C[C@H](NC(C)C)c2nnc([C@H]3C[C@@H](CC(C)C)C3)n2C2CC2)c(C)c1 [Example F-536] | – | – | < 3 | < 3
CCn1c(CCC(=O)Nc2ccc(C)cc2C)nnc1CCC(C)C [Example F-51] | > 3 | > 3 | – | –
Cc1ccc(NC(=O)C[C@H](CCO)c2nnc(C3CC4(CCC(C)(C)CC4)C3)n2C2CC2)c(C)c1 [Example F-602] | – | – | < 3 | < 3
